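These data come from cells grown in 96-well plates and exposed to compound for 48 hours at five concentrations. Abbreviation: GI50, concentration required for 50% inhibition of growth.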 Active and inactive are the calls of the source. Cut-off read from the data, not from the text of the source: active = GI50 up to about 1.1 µM and inactive = higher.
What was measured:
Experiment in all cases: inhibition of tumour cell growth, NCI panel, 48 h
[1] = tested on: MDA-N
[2] = tested on: NCI/ADR-RES
[3] = tested on: MDA-MB-435
[4] = tested on: DMS-114
[5] = tested on: DMS-273
[6] = tested on: M19-MEL
[7] = tested on: KM-20L2
[8] = tested on: LXFL 529

Compound	GI50 [1]	GI50 [2]	GI50 [3]	GI50 [4]	GI50 [5]	GI50 [6]	GI50 [7]	GI50 [8]
c1ccc2cc(-c3cc(-c4cc(-c5ccc6ccccc6c5)on4)no3)ccc2c1	> 100 µM (inactive)	> 100 µM (inactive)	> 100 µM (inactive)	–	–	–	–	–
CCCCSCc1nc2nc(Cl)c(Cl)nc2[nH]1	25.1 µM (inactive)	27 µM (inactive)	33.5 µM (inactive)	–	–	–	–	–
Nc1ccc(S(=O)(=O)c2ccc(NC(=O)c3cccnc3)cc2)cc1	> 100 µM (inactive)	> 100 µM (inactive)	> 100 µM (inactive)	–	–	–	–	–
CCOc1cc2c(cc1O)/C(=N\N)C[C@@H]1[C@@H]2CC[C@]2(C)[C@@H](O)CC[C@@H]12	0.261 µM (active)	3.86 µM (inactive)	0.281 µM (active)	–	–	–	–	–
NS(=O)(=O)c1ccc(NC2(C(=O)O)CCCC2)cc1	> 100 µM (inactive)	> 100 µM (inactive)	> 100 µM (inactive)	–	–	–	–	–
C=C1C(=O)O[C@H]2C1[C@H](OC(=O)/C(C)=C\COC(C)=O)C[C@]1(CO1)[C@@H]1[C@H](O)[C@H]3O[C@@]3(C)[C@@H]12 (stereo partly specified)	–	21.4 µM (inactive)	–	19.4 µM (inactive)	26.3 µM (inactive)	15.7 µM (inactive)	30.5 µM (inactive)	–
C=C1C(=O)OC2/C=C(\C)CC(O)/C=C(/CO)CC(OC(=O)/C(C)=C/C)C12 (stereo unspecified)	–	130 µM (inactive)	–	14.3 µM (inactive)	24 µM (inactive)	23 µM (inactive)	71.1 µM (inactive)	–
COc1ccc(-c2c(C#N)c(-c3ccc(C)cc3)n(NS(=O)(=O)c3ccc(C)cc3)c(=O)c2C#N)cc1	75 µM (inactive)	53.7 µM (inactive)	65.9 µM (inactive)	–	–	–	–	–
Nc1ccc(S(=O)(=O)Nc2nc3ccccc3nc2N2CCCCCC2)cc1	32.5 µM (inactive)	30.8 µM (inactive)	18.1 µM (inactive)	–	–	–	–	–
O=C1Nc2c(Cl)cccc2/C1=N/Nc1ccccc1[N+](=O)[O-]	25.6 µM (inactive)	11.5 µM (inactive)	28.2 µM (inactive)	–	–	–	–	–
COc1cc(/C=C2\C[C@H]3[C@@H]4CC=C5C[C@@H](O)CC[C@]5(C)[C@H]4CC[C@]3(C)[C@H]2O)cc(OC)c1OC	21.9 µM (inactive)	12.9 µM (inactive)	20 µM (inactive)	–	–	–	–	–
CSC(=S)N/N=C(\C)c1cccc(C)n1	0.925 µM (active)	1.36 µM (inactive)	1.35 µM (inactive)	–	–	–	–	–
CC(=O)NC1=C(NC(C)(C)C)C(=O)c2ccccc2C1=O	–	–	–	20.6 µM (inactive)	26.1 µM (inactive)	15.4 µM (inactive)	18.7 µM (inactive)	15.2 µM (inactive)
O=C1CCCN1C(=O)CS(=O)(=O)c1ccccc1	> 100 µM (inactive)	> 100 µM (inactive)	> 100 µM (inactive)	–	–	–	–	–
CC(=O)OCC1OC(O[C@@H]2C[C@H]3C(C)(C)[C@@H](OC(C)=O)CC[C@]3(C)[C@H]3CC[C@]45C[C@]4(CC[C@H]5[C@@H](C)C[C@@H](O)[C@H](O)C(C)(C)F)[C@@]32C)C(O)C(O)C1O (stereo partly specified)	1.63 µM (inactive)	10.5 µM (inactive)	8.04 µM (inactive)	–	–	–	–	–
Nc1ccc(-c2ncc3cc(-c4cccc(-c5cc6cnc(-c7ccc(N)cc7)nc6c6ccccc56)c4)c4ccccc4c3n2)cc1	> 100 µM (inactive)	> 100 µM (inactive)	> 100 µM (inactive)	–	–	–	–	–
S=C(N/N=C(/c1ccccc1)c1ccccn1)N1CCCCCC1	< 0.044 µM (active)	< 0.0194 µM (active)	0.0843 µM (active)	–	–	–	–	–
Nc1cccc(C#Cc2cccc(C#Cc3cccc(N)n3)n2)n1	79.3 µM (inactive)	> 100 µM (inactive)	89.9 µM (inactive)	–	–	–	–	–
O=C1C(c2ccccc2)=[N+]([O-])c2cc([N+](=O)[O-])ccc21	–	–	–	14.3 µM (inactive)	–	17.7 µM (inactive)	23.5 µM (inactive)	–
CCN1CCC(O)(c2ccc([N+](=O)[O-])cc2)C(C(=O)c2ccc([N+](=O)[O-])cc2)C1 (stereo unspecified)	20.8 µM (inactive)	53.8 µM (inactive)	20.5 µM (inactive)	–	–	–	–	–
COC(=O)/C(=N/NC(C)(C)C)C(C(=O)OC)C(=O)C(=O)Nc1nc2ccc([N+](=O)[O-])cc2s1 (stereo unspecified)	–	–	–	> 100 µM (inactive)	–	> 100 µM (inactive)	> 100 µM (inactive)	> 100 µM (inactive)
N/C(=N\N=C\c1cc2ccccc2s1)c1cnccn1	> 100 µM (inactive)	> 100 µM (inactive)	> 100 µM (inactive)	–	–	–	–	–
NC(=O)CC(N)C(=O)NC(Cc1ccccc1)C(=O)NC(Cc1ccccc1)NC(=O)C(Cc1c[nH]c2ccccc12)C(=O)O (stereo unspecified)	–	> 100 µM (inactive)	> 100 µM (inactive)	–	–	–	–	–
Cc1cn(C2CC(O)C(COC(=O)NCCC(F)(F)C(F)(F)C(F)(F)C(F)(F)F)O2)c(=O)[nH]c1=O (stereo unspecified)	86.3 µM (inactive)	–	75.2 µM (inactive)	–	–	–	–	–
COc1ccc(CCCNC(=O)Cc2ccccc2CO)cc1OC	> 100 µM (inactive)	> 100 µM (inactive)	> 100 µM (inactive)	–	–	–	–	–
Nc1nc(SCCC/C=C/B(O)O)nc2c1ncn2C1OC(CO)C(O)C1O (stereo unspecified)	–	–	–	–	> 243 µM (inactive)	> 243 µM (inactive)	> 243 µM (inactive)	> 243 µM (inactive)
CC(C)[Si](OC1=C(C(=O)N(C)c2cccc(Cl)c2)CCCC1)(C(C)C)C(C)C	17.4 µM (inactive)	12.6 µM (inactive)	15.5 µM (inactive)	–	–	–	–	–
O=S1(=O)OCCOS(=O)(=O)C1Cl	–	–	–	> 100 µM (inactive)	> 100 µM (inactive)	> 100 µM (inactive)	–	> 100 µM (inactive)

Reference: ChEMBL document CHEMBL1201862, “PubChem BioAssay data set” (2004)
